# Measurements: patent US20230381330A1, “ENZYME-ACTIVATED SERUM EXTENDED HALF-LIFE THERAPEUTIC CONJUGATES” (Avacta Life Sciences Limited, priority 2020, published 2023)
# Assays:
# mouse tumor model = assay: EC50 / maximum tolerated dose studies in mice; assay type: in vivo; details: FIG. 4A/4B
# Method: (§1) Half-maximal effective concentration (EC50) studies were undertaken to examine the difference between mice and rats administered talabostat alone (FIG. 4A) and mice and rats administered the therapeutic conjugates comprising talabostat (FIG. 4B). When talabostat is administered alone, the talabostat maximum tolerated dose (MTD) is about 3 mg/m^2 in a mouse tumor model and 0.18 mg/m^2 in rats. That is, the talabostat MTD is 1/17 the tumor model EC50 (FIG. 4A). […] Talabostat, as part of the therapeutic conjugate, can be administered to rats and mice at therapeutically effective doses.
# G-CSF = details: mouse, in vivo; cited from earlier work
# rats = assay: EC50 / maximum tolerated dose studies in rats; assay type: in vivo, rat; details: talabostat administered alone, FIG. 4A
# Method: as §1
# [1] = test system: J774A.1 mouse macrophage cell line cells; assay: LDH release (pyroptosis) in J774A.1 cells with or without rhFAPα; assay type: cell-based; details: serial 10-fold dilutions, rhFAPα 25 nM, 24 hours, FIG. 17
# Method: In further in vitro studies, several conjugates were tested for their ability to induce pyroptosis in J774 cells in the absence and presence of FAPα. Briefly, J774A.1 mouse macrophage cell line cells were cultured in triplicate wells with serial 10-fold dilutions of either VbP (data not shown) or one of the FAP-activated I-DASH inhibitors (Hu IgG1 Fc-6325, Hu IgG1-6325, MSA-6325, SQT-Gly V.2-6325, SQT-Gly CF-6325 or SQT-Gly CG-6325) in the presence or absence of rhFAPα at a final concentration of 25 nM for 24 hours. Each experiment included an untreated control. Following the incubation, the levels of lactate dehydrogenase (LDH, a marker of pyroptosis) released into culture supernatants were measured using the CytoTox 96 Non-radioactive Cytotoxicity Assay according to the manufacturer's instructions. The results are shown in FIG. 17 as fold-increase in LDH release.
smiles,measurement,setting,value
"CC(C)[C@H](N)C(=O)N1CCC[C@H]1B(O)O [talabostat, Val-boroPro]",maximum tolerated dose (MTD),mouse tumor model,about 3 mg/m^2
same,serum G-CSF response,G-CSF,large serum G-CSF response
same,maximum tolerated dose (MTD),rats; rats,0.18 mg/m^2
same,MTD as fraction of the tumor model EC50,rats,1/17
same,differentiation of fold-increase in LDH release with vs without FAPα,[1],not the case
